For eight compounds, IC50 results are on record in patent EP1900728A1 (Genecare Research Institute Co., Ltd, priority 2005, dated 2006).

The structures appear in SMILES notation. Bounds are passed on as bounds.

Assay [1] concerns ICAM-1 expression in HT-29 cells. The experiment in a line: Measurement of ICAM-1 expressing activity (TNFα-induced ICAM-1 expression, cell ELISA). It is filed as cell-based. Conditions: Homo sapiens, Table 6, cell activity inhibition test by method (3), read-out: EVALUATION (IC50 class, inhibition of cell activity). In a few lines: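 HT-29 cells pretreated with compound (0.5% DMSO final) for 30 min at 37°C, then stimulated with 30 ng/mL human TNFα for 4 h. Surface ICAM-1 measured by cell ELISA on methanol-fixed cells: anti-ICAM-1 plus POD secondary, TMBZ substrate, absorbance at 450 nm.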

Assay [2] deals with T1, IκBα ubiquitinating enzyme (SCF complex: ROC1, Cullin1, Skp1, His-TrCP1; with E1, UbcH5b) (Homo sapiens, UniProt P62877+P63208+Q13616+Q9Y297).
T1 construct: His (polyhistidine); made in house; host or cells: insect cells (baculovirus) for the SCF complex and His-E1; E. coli for His-UBCH5b
As to the kind of experiment: Measurement of ubiquitinating enzyme activity (IκBα ubiquitination, time-resolved fluorescence with Eu(K)-labeled ubiquitin and XL665-labeled anti-GST antibody). It is filed as biochemical. Conditions: enzyme activity inhibition test, method (1), Table 5; read-out: EVALUATION
An outline of the steps: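 Human SCF complex with E1 and UbcH5b ubiquitinated GST-IκBα pre-phosphorylated by IKKβ (2 mM ATP, pH 7.4, 1 h, RT), with Eu(K)-ubiquitin, 30 min RT. Stopped with EDTA, XL665 anti-GST added for 2 h; 665/620 nm TR-FRET ratio. % inhibition versus no-compound control and no-SCF blank gave IC50.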

T1 sequence (Q9Y297 whole entry): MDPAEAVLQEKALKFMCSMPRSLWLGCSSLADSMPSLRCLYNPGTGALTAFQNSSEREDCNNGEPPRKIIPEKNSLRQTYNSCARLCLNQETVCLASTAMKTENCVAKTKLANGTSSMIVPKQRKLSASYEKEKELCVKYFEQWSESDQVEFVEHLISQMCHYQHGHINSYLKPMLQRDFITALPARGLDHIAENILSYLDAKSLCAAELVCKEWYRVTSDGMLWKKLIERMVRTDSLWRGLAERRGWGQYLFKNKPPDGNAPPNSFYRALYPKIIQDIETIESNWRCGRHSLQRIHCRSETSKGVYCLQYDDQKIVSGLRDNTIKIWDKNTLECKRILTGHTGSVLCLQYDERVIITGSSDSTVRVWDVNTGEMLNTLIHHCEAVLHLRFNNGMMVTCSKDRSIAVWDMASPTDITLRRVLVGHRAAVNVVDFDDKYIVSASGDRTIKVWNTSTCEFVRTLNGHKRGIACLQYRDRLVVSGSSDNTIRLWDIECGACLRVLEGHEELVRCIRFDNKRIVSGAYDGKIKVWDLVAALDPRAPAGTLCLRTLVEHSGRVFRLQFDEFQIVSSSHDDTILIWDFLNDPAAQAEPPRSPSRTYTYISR
T1 sequence (Q13616 whole entry): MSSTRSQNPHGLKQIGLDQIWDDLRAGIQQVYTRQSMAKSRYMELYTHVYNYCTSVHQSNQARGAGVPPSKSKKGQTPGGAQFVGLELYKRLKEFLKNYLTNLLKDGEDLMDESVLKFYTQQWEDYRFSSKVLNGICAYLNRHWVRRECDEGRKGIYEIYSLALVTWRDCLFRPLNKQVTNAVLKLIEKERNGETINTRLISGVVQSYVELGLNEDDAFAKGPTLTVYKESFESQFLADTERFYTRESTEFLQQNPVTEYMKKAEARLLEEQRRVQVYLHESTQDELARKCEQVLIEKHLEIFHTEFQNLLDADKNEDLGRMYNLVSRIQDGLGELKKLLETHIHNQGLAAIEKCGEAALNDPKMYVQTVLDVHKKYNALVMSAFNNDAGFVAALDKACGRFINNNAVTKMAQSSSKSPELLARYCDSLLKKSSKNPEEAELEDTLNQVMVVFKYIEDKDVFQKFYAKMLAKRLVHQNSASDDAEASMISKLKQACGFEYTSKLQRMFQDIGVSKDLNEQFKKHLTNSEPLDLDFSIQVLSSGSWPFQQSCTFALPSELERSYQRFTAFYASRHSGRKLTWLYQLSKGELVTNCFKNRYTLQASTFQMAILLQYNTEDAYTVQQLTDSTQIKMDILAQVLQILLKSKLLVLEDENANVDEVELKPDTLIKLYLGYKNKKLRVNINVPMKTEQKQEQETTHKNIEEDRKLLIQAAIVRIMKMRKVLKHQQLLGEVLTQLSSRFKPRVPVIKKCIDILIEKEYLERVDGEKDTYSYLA
T1 sequence (P63208 whole entry): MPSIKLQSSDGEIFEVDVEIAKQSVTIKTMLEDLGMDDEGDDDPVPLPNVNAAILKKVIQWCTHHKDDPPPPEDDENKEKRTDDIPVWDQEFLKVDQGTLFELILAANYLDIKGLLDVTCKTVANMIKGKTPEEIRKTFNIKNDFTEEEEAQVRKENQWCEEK
T1 sequence (P62877 whole entry): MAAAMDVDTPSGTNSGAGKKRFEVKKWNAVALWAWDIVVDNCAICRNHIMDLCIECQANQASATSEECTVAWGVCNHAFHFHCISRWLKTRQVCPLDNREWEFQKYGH

Take `O=C(O)c1cccc(N2N=C(c3ccoc3)/C(=C/c3ccc(-c4cnn(Cc5ccccc5)c4)o3)C2=O)c1` [Compound 490]: the IC50 in assay [1] was 10 to 20 µM; in assay [2], less than 10 µM.

`COc1cc(/C=C2\C(=O)N(c3ccc(C(=O)O)cc3)N=C2C2CC2)ccc1OCc1ccccc1` [Compound 314]: the IC50 in assay [1] is 10 to 20 µM; in assay [2] it was less than 10 µM.

In the case of `COc1ccc(C2=NN(c3ccc(C(=O)O)cc3)C(=O)/C2=C\c2ccc3ccccc3c2)cc1` [Compound 325], the IC50 in assay [1] and in assay [2] was less than 10 µM in each case.

For the compound `CC1=NN(c2ccc(C(=O)O)cc2)C(=O)/C1=C\c1ccc(OCC(=O)Nc2ccccc2)cc1` [Compound 537], the IC50 in assay [1] is less than 40 µM; in assay [2] it was less than 10 µM.

With `CCCCC1=NN(c2ccc(C(=O)O)cc2)C(=O)/C1=C\c1ccc(N2CCCC2)cc1` [Compound 301], the results for the IC50 in assay [1] and in assay [2] were less than 10 µM and 10 to 20 µM, respectively.

As to `COc1cc(/C=C2/C(=O)N(C3CCCCC3)N=C2C)ccc1O` [Compound 199], the IC50 in assay [1] is less than 10 µM; in assay [2] it was 10 to 20 µM.

As for `COCC1=NN(Cc2cccc(O)c2)C(=O)/C1=C\c1ccc(-c2ccccc2F)o1` [Compound 190], the IC50 in assay [1] and in assay [2] was 10 to 20 µM each time.

With `CC1=NN(c2cccc(C(=O)O)c2)C(=O)/C1=C\c1ccc(N2CCN(C(=O)OC(C)(C)C)CC2)cc1` [Compound 437], the values for the IC50 in assay [1] and in assay [2] were less than 40 µM and 10 to 20 µM, respectively.
